Results on 1 molecule are retold here after US20250000088A1, “ANT CONTROL AGENT AND ANT CONTROL METHOD” (Shin-Etsu Chemical Co., Ltd., priority 2021, published 2025).

In this assay the test system is worker ants of Myrmica ruginodis. Kind of assay: Bioassay for selection of odor source (two arms of a four-arm olfactometer). Format: in vivo. The note with it: 10 ants per group, 3 repetitions, max 5 min. As to the method: Bioassays were performed using the worker ants of Myrmica ruginodis which had been collected in Niigata Prefecture in Japan. The bioassays were performed using only two arms of a four-arm olfactometer (classic 4-Choice Arena Orfactometer, Sigma Scientific LLC) as shown in FIG. 5. Pure air filled in a 47 L gas cylinder was used as an air source, and the air flow rate was adjusted by a regulator. […] The ants were used as each group consisting of 10 ants, the test was started at the time of entering the ants from the inlet 1, and the selection for the odor source was made for a maximum of 5 minutes per repetition. The choice of odor source was determined by counting the number of ants in the insect separation chamber 2 at the end of the test. Five minutes after the start of the experiment, and when all 10 ants selected any one of odor sources, the results were recorded, and the tested ants were removed. Then three repetitions (using a total of 30 ants) of experiments were performed. Each cotton swab serving as an odor source was installed in each odor source installation adapter 3, and was replaced with a new one at every repetition. The glassware was washed after each repetition, and the odor source installation adapter for installing an odor source in the olfactometer was selected randomly. […]

Consider `CCCCCC(=O)CC` [3-octanone], for which the “number of ants gathering at the odor source (choice of odor source)” value (cotton swab containing 1.1 mg of mixture (3-octanone diluted with distilled water with Triton X-100) vs distilled water control, FIG. 2) was “gathered in the alarm pheromone compound treatment section” and the “number of ants gathering at the odor source (choice of odor source)” value (cotton swab containing 7.6 mg of mixture (3-octanone diluted in distilled water with Triton X-100) vs distilled water control, FIG. 1) is listed as “gathered in the control section, while avoiding the alarm pheromone compound treatment section”.
